# Test results from paper PMC4286194 (Biochemical Journal, 2015).
# Columns and labels:
# Experiment in all cases: Kinase profiling
# Assay type in all cases: biochemical
# [1] = biological target: MNK1 (Homo sapiens, UniProt Q9BUB5)
# [2] = biological target: MINK1 (Homo sapiens, UniProt Q8N4C8)
# [3] = biological target: T1, ZAP70 (Homo sapiens, UniProt P43403)
# T1 sequence (P43403 1-619): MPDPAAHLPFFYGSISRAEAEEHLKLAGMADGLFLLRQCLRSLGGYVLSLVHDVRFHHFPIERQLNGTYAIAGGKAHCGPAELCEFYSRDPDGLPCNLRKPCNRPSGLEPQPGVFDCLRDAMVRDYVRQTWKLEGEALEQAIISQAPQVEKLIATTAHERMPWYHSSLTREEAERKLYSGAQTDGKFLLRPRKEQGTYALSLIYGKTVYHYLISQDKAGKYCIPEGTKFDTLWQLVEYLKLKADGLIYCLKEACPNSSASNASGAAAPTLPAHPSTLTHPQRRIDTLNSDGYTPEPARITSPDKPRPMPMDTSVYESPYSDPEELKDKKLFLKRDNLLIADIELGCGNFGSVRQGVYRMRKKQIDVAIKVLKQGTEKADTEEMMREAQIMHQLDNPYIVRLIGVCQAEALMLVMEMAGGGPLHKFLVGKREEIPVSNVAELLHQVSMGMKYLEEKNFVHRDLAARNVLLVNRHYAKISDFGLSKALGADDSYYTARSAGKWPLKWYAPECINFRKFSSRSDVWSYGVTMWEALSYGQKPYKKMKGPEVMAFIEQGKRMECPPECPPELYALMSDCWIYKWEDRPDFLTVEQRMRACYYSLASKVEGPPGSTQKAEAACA
# [4] = biological target: PIM2 (Homo sapiens, UniProt Q9P1W9)
# [5] = biological target: T2, PKC zeta (Homo sapiens, UniProt Q05513)
# T2 sequence (Q05513 1-592): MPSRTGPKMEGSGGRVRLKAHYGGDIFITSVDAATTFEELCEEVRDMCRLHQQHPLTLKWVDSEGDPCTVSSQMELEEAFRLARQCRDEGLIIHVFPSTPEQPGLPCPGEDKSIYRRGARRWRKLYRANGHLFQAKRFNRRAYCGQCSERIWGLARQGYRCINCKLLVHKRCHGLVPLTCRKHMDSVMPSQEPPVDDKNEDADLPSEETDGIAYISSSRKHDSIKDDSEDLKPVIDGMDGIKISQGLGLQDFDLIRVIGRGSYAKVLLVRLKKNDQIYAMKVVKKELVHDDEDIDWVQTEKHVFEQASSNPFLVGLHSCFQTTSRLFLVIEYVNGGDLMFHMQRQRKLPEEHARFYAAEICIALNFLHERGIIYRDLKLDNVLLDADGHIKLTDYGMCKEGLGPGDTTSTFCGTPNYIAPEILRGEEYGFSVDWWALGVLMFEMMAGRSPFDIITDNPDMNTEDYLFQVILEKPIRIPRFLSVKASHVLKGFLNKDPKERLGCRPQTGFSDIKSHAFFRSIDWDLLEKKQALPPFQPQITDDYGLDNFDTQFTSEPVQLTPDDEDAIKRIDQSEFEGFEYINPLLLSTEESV
# [6] = biological target: MARK2 (Homo sapiens, UniProt Q7KZI7)
# [7] = biological target: CSK (Homo sapiens, UniProt P41240)
# [8] = biological target: SmMLCK (Homo sapiens, UniProt Q15746)
# [9] = biological target: T3, PINK (Tribolium castaneum, UniProt D6WMX4)
# T3 sequence (D6WMX4 1-570): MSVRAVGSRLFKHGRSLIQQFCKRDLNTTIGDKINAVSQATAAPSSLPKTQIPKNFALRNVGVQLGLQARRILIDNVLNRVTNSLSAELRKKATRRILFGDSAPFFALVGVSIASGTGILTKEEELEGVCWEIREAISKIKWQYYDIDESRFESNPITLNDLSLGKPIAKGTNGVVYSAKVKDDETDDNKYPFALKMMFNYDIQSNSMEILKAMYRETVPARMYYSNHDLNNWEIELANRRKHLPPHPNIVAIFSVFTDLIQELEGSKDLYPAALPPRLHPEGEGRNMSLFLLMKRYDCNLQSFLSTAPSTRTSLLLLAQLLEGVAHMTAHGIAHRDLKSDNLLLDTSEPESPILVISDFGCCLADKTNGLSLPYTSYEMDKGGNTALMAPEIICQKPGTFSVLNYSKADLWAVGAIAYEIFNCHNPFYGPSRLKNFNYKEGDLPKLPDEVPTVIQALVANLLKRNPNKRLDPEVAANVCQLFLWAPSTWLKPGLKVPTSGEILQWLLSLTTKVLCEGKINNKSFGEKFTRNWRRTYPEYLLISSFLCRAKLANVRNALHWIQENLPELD
# [10] = biological target: T4, SGK1 (Homo sapiens, UniProt O00141)
# T4 sequence (O00141 1-431): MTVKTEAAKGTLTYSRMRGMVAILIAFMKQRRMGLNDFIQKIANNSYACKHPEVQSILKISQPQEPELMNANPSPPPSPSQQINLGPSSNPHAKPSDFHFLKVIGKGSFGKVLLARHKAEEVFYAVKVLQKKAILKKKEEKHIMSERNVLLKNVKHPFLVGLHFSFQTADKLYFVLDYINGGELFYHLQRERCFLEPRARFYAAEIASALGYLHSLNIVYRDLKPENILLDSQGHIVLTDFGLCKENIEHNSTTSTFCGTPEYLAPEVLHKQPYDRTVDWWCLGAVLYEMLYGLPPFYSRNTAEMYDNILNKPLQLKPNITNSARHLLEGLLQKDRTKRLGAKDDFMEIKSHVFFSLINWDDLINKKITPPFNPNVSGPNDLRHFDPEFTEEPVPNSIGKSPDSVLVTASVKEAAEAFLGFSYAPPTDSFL
# Sequence of MNK1 (Q9BUB5 whole entry): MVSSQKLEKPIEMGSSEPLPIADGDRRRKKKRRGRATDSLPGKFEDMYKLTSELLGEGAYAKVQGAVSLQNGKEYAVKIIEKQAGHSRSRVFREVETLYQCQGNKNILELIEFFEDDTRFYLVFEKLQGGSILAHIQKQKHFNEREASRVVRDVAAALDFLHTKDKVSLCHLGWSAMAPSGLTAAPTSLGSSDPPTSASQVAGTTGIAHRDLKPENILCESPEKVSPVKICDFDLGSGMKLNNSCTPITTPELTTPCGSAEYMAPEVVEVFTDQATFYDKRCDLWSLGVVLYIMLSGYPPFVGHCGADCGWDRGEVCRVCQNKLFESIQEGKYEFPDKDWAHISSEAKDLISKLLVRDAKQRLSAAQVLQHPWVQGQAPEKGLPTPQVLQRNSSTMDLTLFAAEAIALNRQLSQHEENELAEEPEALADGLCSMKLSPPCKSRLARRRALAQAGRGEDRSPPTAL
# Sequence of PIM2 (Q9P1W9 whole entry): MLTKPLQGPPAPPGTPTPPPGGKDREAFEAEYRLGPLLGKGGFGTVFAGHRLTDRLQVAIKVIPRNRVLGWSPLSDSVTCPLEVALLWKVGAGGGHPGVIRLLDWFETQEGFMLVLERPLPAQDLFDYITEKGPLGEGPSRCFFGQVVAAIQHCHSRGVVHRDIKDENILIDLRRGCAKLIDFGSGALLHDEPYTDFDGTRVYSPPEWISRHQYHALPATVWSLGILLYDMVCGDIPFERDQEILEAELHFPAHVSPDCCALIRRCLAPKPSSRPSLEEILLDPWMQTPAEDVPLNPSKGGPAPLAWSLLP
# Sequence of CSK (P41240 whole entry): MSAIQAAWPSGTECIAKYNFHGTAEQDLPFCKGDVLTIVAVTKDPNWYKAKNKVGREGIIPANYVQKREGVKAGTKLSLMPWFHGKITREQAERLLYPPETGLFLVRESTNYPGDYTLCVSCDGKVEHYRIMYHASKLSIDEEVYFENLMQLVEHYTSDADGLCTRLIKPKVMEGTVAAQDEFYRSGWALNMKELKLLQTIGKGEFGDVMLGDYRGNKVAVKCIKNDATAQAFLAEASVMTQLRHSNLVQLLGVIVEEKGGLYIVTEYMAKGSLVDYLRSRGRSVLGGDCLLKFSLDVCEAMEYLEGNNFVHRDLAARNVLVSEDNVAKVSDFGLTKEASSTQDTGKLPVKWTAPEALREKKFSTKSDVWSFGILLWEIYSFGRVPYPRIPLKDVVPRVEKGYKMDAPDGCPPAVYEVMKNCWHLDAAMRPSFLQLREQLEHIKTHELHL
# Sequence of MINK1 (Q8N4C8 whole entry): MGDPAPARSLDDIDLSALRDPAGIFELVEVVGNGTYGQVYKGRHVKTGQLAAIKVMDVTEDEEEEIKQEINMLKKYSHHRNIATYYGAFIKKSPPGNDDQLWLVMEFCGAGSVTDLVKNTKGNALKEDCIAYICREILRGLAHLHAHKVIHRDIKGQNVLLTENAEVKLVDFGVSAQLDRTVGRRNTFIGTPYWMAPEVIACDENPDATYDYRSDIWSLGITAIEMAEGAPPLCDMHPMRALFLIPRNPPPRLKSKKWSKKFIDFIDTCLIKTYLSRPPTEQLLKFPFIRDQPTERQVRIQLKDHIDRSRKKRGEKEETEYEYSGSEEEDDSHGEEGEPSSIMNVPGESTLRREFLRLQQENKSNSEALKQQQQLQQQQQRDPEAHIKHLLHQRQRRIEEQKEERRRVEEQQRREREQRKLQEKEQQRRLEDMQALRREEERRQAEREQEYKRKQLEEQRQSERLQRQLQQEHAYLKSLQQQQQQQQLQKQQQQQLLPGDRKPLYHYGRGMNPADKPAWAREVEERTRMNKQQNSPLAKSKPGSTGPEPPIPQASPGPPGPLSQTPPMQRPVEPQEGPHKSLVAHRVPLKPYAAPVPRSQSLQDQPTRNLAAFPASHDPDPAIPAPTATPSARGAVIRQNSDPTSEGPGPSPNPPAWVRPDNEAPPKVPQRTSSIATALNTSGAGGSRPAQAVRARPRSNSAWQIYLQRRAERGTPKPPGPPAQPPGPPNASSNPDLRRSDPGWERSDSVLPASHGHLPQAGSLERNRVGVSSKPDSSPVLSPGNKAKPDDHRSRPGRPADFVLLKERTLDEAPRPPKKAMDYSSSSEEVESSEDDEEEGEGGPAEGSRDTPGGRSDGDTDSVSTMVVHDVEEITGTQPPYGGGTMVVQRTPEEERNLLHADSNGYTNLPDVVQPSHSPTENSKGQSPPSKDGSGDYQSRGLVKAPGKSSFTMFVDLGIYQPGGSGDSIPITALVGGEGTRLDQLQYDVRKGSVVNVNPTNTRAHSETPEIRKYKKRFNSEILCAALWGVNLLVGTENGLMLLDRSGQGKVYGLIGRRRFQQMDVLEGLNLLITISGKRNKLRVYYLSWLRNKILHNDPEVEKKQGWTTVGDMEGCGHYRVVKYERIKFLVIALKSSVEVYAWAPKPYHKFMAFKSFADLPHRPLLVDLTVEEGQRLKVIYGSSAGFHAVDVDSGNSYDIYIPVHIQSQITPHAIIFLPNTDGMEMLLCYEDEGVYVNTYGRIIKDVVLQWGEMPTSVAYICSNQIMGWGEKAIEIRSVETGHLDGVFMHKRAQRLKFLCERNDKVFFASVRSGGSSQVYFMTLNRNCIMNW
# Sequence of SmMLCK (Q15746 923-1914): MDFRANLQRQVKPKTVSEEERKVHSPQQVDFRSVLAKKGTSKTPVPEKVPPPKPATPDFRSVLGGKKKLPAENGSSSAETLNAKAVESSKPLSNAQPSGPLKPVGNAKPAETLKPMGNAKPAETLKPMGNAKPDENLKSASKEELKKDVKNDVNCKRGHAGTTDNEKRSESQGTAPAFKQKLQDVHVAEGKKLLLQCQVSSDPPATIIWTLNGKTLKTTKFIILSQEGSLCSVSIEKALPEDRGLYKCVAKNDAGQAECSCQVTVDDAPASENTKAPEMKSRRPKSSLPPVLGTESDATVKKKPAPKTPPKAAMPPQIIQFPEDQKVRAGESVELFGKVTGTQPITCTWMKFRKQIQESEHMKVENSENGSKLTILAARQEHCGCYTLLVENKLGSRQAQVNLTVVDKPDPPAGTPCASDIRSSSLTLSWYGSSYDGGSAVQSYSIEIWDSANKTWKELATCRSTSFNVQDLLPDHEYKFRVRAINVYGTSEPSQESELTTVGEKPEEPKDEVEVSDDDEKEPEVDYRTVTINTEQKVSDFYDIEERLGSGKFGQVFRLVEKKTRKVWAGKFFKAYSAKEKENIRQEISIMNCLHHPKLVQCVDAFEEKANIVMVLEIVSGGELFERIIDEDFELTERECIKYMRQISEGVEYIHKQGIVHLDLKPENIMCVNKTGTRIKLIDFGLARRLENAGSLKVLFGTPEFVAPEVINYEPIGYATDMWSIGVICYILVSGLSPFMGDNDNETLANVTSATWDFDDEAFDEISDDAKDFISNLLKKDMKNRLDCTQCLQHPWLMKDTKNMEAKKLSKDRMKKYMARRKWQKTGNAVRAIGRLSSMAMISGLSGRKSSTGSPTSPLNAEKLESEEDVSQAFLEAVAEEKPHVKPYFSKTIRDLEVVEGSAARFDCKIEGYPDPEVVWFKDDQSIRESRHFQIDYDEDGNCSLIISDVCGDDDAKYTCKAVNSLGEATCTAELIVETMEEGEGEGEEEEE
# Sequence of MARK2 (Q7KZI7 whole entry): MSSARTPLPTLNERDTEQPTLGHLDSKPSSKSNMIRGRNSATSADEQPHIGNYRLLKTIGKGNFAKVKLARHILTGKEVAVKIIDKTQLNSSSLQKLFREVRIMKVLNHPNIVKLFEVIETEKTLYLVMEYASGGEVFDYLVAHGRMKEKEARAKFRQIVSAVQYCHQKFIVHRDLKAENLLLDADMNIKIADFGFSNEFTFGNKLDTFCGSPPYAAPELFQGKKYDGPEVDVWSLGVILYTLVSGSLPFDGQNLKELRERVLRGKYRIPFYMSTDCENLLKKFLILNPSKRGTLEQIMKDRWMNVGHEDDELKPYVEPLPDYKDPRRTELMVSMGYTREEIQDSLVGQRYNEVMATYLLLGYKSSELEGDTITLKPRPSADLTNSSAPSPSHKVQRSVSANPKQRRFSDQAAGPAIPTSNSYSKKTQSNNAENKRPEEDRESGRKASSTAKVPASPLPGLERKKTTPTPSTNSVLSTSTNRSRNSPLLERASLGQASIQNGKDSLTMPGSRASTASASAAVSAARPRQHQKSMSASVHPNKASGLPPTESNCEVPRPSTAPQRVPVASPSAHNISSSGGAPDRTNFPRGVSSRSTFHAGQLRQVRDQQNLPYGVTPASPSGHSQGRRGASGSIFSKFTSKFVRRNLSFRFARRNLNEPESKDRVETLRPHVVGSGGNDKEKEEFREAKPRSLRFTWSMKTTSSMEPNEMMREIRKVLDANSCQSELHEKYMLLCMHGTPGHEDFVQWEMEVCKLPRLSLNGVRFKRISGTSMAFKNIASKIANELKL
Compound,remaining activity at 0.1 µM [1],remaining activity at 1 µM [1],remaining activity at 0.1 µM [2],remaining activity at 1 µM [2],remaining activity at 0.1 µM [3],remaining activity at 1 µM [3],remaining activity at 0.1 µM [4],remaining activity at 1 µM [4],remaining activity at 0.1 µM [5],remaining activity at 1 µM [5],remaining activity at 0.1 µM [6],remaining activity at 1 µM [6],remaining activity at 0.1 µM [7],remaining activity at 1 µM [7],remaining activity at 0.1 µM [8],remaining activity at 1 µM [8],remaining activity at 0.1 µM [9],remaining activity at 1 µM [9],remaining activity at 0.1 µM [10],remaining activity at 1 µM [10]
"COc1cc(Nc2c(C#N)cnc3cc(OCCCN4CCN(C)CC4)c(OC)cc23)c(Cl)cc1Cl [Bosutinib, bosutinib]",99 ± 14%,105 ± 2%,5 ± 1%,1%,99 ± 4%,109 ± 18%,99%,96 ± 8%,91 ± 2%,102 ± 4%,89 ± 8%,68 ± 1%,65 ± 7%,4%,88 ± 2%,27 ± 1%,112 ± 9%,125 ± 13%,98 ± 20%,100 ± 2%
Cc1nc(Nc2ncc(C(=O)Nc3c(C)cccc3Cl)s2)cc(N2CCN(CCO)CC2)n1 [Dasatinib],108%,102 ± 9%,90 ± 4%,51 ± 1%,109 ± 1%,121 ± 27%,104 ± 3%,105 ± 1%,101 ± 3%,109 ± 7%,118 ± 4%,126 ± 2%,97 ± 19%,8 ± 3%,111 ± 4%,111 ± 7%,117 ± 1%,133 ± 5%,87 ± 11%,96 ± 7%
